{"source": "patent US10189880B2", "about": "“T cell receptors directed against Bob1 and uses thereof” (LEIDEN UNIVERSITY MEDICAL CENTER, priority 2014, dated 2019)", "key": {"[1]": {"experiment": "AP1903 in vitro effective signaling of cells", "type": "cell-based", "procedure": "The fixed dose of AP1903 for injection used, for example, may be 0.4 mg/kg intravenously infused over 2 hours. The amount of AP1903 needed in vitro for effective signaling of cells is about 10-100 nM (MW: 1412 Da). This equates to 14-140 μg/L or ˜0.014-0.14 mg/kg ([…]). The dosage may vary according to the application, and may, in certain examples, be more in the range of 0.1-10 nM, or in the range of 50-150 nM, 10-200 nM, 75-125 nM, 100-500 nM, 100-600 nM, 100-700 nM, 100-800 nM, or 100-900 nM. Doses up to 1 mg/kg were well-tolerated in the Phase I study of AP1903 described above."}, "CD3+ΔCD19+ cells": {"test_system": "CD3+ΔCD19+ cells", "experiment": "Phase 1 clinical trial of iCasp9 T cells after haploidentical stem cell transplantation", "type": "in vivo, human", "source_text": "This example presents results of a phase 1 clinical trial using an alternative suicide gene strategy. Briefly, donor peripheral blood mononuclear cells were co-cultured with recipient irradiated EBV-transformed lymphoblastoid cells (40:1) for 72 hrs, allodepleted with a CD25 immunotoxin and then transduced with a retroviral supernatant carrying the iCasp9 suicide gene and a selection marker (ΔCD19); ΔCD19 allowed enrichment to >90% purity via immunomagnetic selection.\nPatients developing Grade I GvHD were treated with 0.4 mg/kg AP1903 as a 2-hour infusion. Protocols for administration of AP1903 to patients developing Grade I GvHD were established as follows. Patients developing GvHD after infusion of allodepleted T cells are biopsied to confirm the diagnosis and receive 0.4 mg/kg of AP1903 as a 2 h infusion. […] Patients developing grades 2-4 GvHD were administered standard systemic immunosuppressive therapy per institutional guidelines, in addition to the AP1903 dimerizer drug.\nThree patients received iCasp9+ T cells after haplo-CD34+ stem cell transplantation (SCT), at dose levels between about 1×10^6 to about 3×10^6 cells/kg."}, "[2]": {"conditions": "cited from earlier work"}}, "note": "“And” between values parts separate entries of the source, which are not always exact repeats. Identical values can stand only once. “Also recorded” adds a separate entry of the source. Like-named read-outs stand apart in the source and are kept apart here.", "data": [{"compound": "CC[C@H](C(=O)N1CCCC[C@H]1C(=O)O[C@H](CCc1ccc(OC)c(OC)c1)c1cccc(OCC(=O)NCCNC(=O)COc2cccc([C@@H](CCc3ccc(OC)c(OC)c3)OC(=O)[C@@H]3CCCCN3C(=O)[C@@H](CC)c3cc(OC)c(OC)c(OC)c3)c2)c1)c1cc(OC)c(OC)c(OC)c1", "note": "(relative stereo) [AP1903, 2-Piperidinecarboxylic acid, 1-[(2S)-1-oxo-2-(3,4,5-trimethoxyphenyl)butyl]-, 1,2-ethanediylbis[imino(2-oxo-2,1-ethanediyl)oxy-3,1-phenylene[(1R)-3-(3,4-dimethoxyphenyl)propylidene]]ester, [2S-[1(R*),2R*[S[S*[1(R*),2R*]]]]]-(9Cl)]", "values": [{"measurement": "amount needed in vitro for effective signaling of cells", "setting": "[1]", "result": "10 to 100", "unit": "nM"}, {"measurement": "amount needed for effective signaling, converted", "setting": "[1]; MW: 1412 Da", "result": "14 to 140", "unit": "µg/L"}, {"measurement": "time to resolution of skin and liver aGvHD", "setting": "CD3+ΔCD19+ cells; after AP1903 administration", "result": "≤ 24", "unit": "h"}, {"measurement": "ablation of CD3+ΔCD19+ cells", "setting": "CD3+ΔCD19+ cells; within 30 minutes of infusion, patients with grade I/II aGvHD, 0.4 mg/kg", "result": "> 90", "unit": "%"}, {"measurement": "further reduction of CD3+ΔCD19+ cells", "setting": "CD3+ΔCD19+ cells; within 24 hours", "result": "further log reduction"}, {"measurement": "duration of the adverse event", "setting": "[2]; 1.0 mg/kg", "result": 32, "unit": "min"}, {"measurement": "onset of the adverse event after start of infusion", "setting": "[2]; 1.0 mg/kg", "result": 3, "unit": "min"}, {"measurement": "relation of plasma levels to dose", "setting": "[2]; 0.01-1.0 mg/kg", "result": "directly proportional to dose"}, {"measurement": "adverse event considered possibly related to AP1903", "setting": "[2]; 1 volunteer at the 1.0 mg/kg dosage", "result": "vasodilatation"}, {"measurement": "plasma level as % of maximal concentration", "setting": "[2]; 2 hours post-dose", "result": "~7", "unit": "%"}, {"measurement": "plasma level as % of maximal concentration", "setting": "[2]; 10 hours post-dose", "result": "~1", "unit": "%"}, {"measurement": "serious adverse events", "setting": "[2]; Phase 1 study in volunteers", "result": "No serious adverse events"}, {"measurement": "safety and tolerability", "setting": "[2]; all dose levels, 0.01 to 1.0 mg/kg", "result": "well-tolerated; also recorded: No significant adverse effects"}, {"measurement": "incidence of adverse events", "setting": "[2]; following each treatment", "result": "very low"}, {"measurement": "severity of adverse events", "setting": "[2]; human, in vivo", "result": "mild"}, {"measurement": "mean Cmax / plasma concentrations", "setting": "[2]; single IV infusion over 2 hours, 0.01-1.0 mg/kg dose range", "result": "10 to 1275 ng/mL and 10 ng/mL"}]}]}
